Key:
physchem = settings: octanol/water
Description: Octanol/water partition co-efficient, log P of the compound by RP-HPLC analysis

Acetylcholinesterase [1] = biological target: Acetylcholinesterase (Electrophorus electricus, UniProt O42275)
Description: Inhibition of electric eel AChE using acetylthiocholine iodide as substrate pretreated for 4.5 mins followed by substrate addition and measured after 2.5 mins by Ellman's method

Cholinesterase [2] = biological target: Cholinesterase (Equus caballus, UniProt P81908)
Description: Inhibition of equine serum BChE using butyrylthiocholine iodide as substrate pretreated for 4.5 mins followed by substrate addition and measured after 2.5 mins by Ellman's method

Acetylcholinesterase [3] = biological target: Acetylcholinesterase (Homo sapiens, UniProt P22303); test: Inhibition of recombinant human AChE expressed in HEK293 cells using acetylthiocholine iodide as substrate pretreated for 4.5 mins followed by substrate addition and measured after 2.5 mins by Ellman's method
Chain of Acetylcholinesterase (Homo sapiens, UniProt P22303) (P22303 whole entry): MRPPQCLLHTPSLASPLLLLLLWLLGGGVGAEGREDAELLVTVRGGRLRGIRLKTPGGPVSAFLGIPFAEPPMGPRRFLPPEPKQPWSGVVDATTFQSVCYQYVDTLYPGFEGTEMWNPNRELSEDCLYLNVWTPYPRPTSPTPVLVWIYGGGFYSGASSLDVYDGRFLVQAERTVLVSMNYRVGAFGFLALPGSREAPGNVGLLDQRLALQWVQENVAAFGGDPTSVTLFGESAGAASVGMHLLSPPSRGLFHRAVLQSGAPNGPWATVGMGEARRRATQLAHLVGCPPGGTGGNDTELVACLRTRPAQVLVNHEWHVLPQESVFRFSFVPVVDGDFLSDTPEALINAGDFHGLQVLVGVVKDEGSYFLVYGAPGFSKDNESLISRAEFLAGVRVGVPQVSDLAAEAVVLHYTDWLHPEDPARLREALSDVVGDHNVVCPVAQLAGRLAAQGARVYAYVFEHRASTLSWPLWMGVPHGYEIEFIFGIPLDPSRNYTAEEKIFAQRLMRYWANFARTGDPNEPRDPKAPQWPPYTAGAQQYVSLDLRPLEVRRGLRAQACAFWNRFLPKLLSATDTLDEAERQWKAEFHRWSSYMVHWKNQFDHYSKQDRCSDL

Cholinesterase [4] = biological target: Cholinesterase (Homo sapiens, UniProt P06276); test: Inhibition of human serum BChE using butyrylthiocholine iodide as substrate pretreated for 4.5 mins followed by substrate addition and measured after 2.5 mins by Ellman's method
Chain of Cholinesterase (Homo sapiens, UniProt P06276) (P06276 whole entry): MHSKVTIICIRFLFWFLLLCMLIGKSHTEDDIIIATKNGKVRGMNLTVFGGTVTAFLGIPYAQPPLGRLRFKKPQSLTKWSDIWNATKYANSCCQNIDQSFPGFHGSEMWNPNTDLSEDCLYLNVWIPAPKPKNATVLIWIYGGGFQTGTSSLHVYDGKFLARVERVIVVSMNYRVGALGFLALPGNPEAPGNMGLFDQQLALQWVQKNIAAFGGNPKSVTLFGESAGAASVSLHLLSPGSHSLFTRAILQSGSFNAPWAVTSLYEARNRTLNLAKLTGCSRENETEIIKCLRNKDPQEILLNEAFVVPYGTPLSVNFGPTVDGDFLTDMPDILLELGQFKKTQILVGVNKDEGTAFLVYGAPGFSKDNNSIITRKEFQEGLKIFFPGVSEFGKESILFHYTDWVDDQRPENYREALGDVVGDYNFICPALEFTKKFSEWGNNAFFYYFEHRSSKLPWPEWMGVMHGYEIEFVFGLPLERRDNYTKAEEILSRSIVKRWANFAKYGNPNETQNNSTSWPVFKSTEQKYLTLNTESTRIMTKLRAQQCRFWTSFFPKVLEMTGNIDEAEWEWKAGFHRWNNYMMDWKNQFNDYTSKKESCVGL

HepG2 = test: cells; settings: Homo sapiens, HepG2, 72 h
Description: Cytotoxicity against human HepG2 cells after 72 hrs by alamar blue assay

Homo sapiens = species on record: Homo sapiens; test: Selectivity ratio of compound effect for displacement of [3H]NMS from recombinant human M2 receptor expressed in CHO cell membranes to displacement of [3H]NMS from recombinant human M1 receptor expressed in CHO cell membranes
[5] = biological target: Acetylcholinesterase (Electrophorus electricus) (UniProt O42275); test: Inhibition of electric eel AChE at 100 uM using acetylthiocholine iodide as substrate pretreated for 4.5 mins followed by substrate addition and measured after 2.5 mins by Ellman's method relative to control
Chain of Acetylcholinesterase (Electrophorus electricus) (O42275 24-633 limits assumed): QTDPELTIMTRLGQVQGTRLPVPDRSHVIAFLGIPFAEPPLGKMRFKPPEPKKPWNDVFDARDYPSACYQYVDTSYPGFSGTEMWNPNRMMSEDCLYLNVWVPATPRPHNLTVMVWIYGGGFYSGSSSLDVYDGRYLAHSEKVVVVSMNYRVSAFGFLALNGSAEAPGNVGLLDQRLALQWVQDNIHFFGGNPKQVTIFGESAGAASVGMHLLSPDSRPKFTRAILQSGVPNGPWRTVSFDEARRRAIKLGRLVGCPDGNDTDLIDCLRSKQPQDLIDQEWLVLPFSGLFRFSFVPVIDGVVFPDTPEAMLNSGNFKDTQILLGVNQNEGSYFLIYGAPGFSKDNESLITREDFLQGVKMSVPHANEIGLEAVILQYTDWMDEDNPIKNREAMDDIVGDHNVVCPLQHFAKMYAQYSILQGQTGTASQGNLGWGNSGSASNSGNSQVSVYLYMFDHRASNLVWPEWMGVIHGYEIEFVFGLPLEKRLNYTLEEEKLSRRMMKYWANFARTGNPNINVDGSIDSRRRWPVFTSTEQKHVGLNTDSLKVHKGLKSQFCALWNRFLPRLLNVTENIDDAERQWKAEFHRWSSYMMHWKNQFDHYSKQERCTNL

Chain of Cholinesterase (Equus caballus, UniProt P81908) (P81908 whole entry): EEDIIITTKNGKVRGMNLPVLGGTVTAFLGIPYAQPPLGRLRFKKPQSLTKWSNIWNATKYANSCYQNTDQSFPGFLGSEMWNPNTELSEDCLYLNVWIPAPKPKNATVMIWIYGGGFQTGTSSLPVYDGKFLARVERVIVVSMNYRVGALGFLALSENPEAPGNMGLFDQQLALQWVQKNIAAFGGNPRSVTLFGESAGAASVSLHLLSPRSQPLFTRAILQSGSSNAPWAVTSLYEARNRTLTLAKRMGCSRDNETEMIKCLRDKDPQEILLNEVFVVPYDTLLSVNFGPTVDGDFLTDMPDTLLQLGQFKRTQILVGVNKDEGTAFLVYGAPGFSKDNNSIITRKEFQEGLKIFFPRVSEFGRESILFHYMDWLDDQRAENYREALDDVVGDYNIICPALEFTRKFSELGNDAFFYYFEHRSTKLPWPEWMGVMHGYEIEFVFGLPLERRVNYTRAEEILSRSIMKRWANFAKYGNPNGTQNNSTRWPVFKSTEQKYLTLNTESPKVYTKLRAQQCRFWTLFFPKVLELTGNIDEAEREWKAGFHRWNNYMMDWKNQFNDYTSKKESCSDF
Chain of Acetylcholinesterase (Electrophorus electricus, UniProt O42275) (O42275 whole entry): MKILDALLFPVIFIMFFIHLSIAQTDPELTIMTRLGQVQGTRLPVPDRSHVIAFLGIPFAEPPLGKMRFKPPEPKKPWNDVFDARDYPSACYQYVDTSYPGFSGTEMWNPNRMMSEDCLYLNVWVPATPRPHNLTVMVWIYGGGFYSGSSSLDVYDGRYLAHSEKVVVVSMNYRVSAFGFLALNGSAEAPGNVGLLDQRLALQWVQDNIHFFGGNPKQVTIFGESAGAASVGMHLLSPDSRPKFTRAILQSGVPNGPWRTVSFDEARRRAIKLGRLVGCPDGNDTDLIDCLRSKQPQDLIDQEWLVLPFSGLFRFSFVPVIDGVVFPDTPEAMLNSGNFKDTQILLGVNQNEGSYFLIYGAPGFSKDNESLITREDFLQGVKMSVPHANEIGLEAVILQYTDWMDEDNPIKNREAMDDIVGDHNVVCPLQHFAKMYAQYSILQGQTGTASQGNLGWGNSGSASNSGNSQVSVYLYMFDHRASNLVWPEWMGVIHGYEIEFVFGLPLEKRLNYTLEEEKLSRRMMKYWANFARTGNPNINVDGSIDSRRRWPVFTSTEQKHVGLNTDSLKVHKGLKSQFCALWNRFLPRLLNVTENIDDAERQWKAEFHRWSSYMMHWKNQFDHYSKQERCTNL

## CC(C)(CN1C(=O)c2cccc3cccc(c23)C1=O)C[N+](C)(C)CCCCCCCCC[N+](C)(C)CC#CCOC1=NOCC1
physchem
  logP: 1.69
Acetylcholinesterase [1]
  IC50: 363 nM
Cholinesterase [2]
  IC50: 324 nM

## C[N+](C)(CC#CCOC1=NOCC1)CCCCCCCCC[N+](C)(C)CCCN1C(=O)c2ccccc2C1=O
physchem
  logP: 0.79
Acetylcholinesterase [1]
  IC50: 15800 nM
Cholinesterase [2]
  IC50: 13200 nM

## C[N+](C)(CC#CCOc1ccon1)CCCCCCCC[N+](C)(C)CCCN1C(=O)c2ccccc2C1=O
physchem
  logP: 0.83
Acetylcholinesterase [1]
  IC50: 67600 nM
Cholinesterase [2]
  IC50: 7940 nM

## CC(C)(CN1C(=O)c2cccc3cccc(c23)C1=O)C[N+](C)(C)CCCCCCCCCC[N+](C)(C)CC#CCOC1=NOCC1
physchem
  logP: 1.77
Acetylcholinesterase [1]
  IC50: 316 nM
Acetylcholinesterase [3]
  IC50: 1070 nM
Cholinesterase [2]
  IC50: 102 nM
Cholinesterase [4]
  IC50: 263 nM

## c1ccc2c(CCCCCCCCCCNc3c4c(nc5ccccc35)CCCC4)c3c(nc2c1)CCCC3
Acetylcholinesterase [1]
  IC50: 1 nM
HepG2
  IC50: < 1250 nM
Cholinesterase [2]
  IC50: 0.457 nM

## C[N+](C)(CC#CCOC1=NOCC1)CCCCCCCNc1c2c(nc3ccccc13)CCCC2
physchem
  logP: 2.05
Acetylcholinesterase [1]
  IC50: 1.74 nM
Homo sapiens
  Selectivity ratio: 3
HepG2
  IC50: > 160000 nM
Acetylcholinesterase [3]
  IC50: 2 nM
Cholinesterase [2]
  IC50: 5.13 nM
Cholinesterase [4]
  IC50: 4.57 nM

## C[N+](C)(CC#CCOC1=NOCC1)CCCCCCCCCC[N+](C)(C)CCCN1C(=O)c2ccccc2C1=O
physchem
  logP: 0.8
Acetylcholinesterase [1]
  IC50: 5500 nM
Acetylcholinesterase [3]
  IC50: 13200 nM
Cholinesterase [2]
  IC50: 4270 nM
Cholinesterase [4]
  IC50: 1950 nM

## C[N+](C)(CC#CCOC1=NOCC1)CCCCCCCC[N+](C)(C)CCCN1C(=O)c2ccccc2C1=O
physchem
  logP: 0.78
Acetylcholinesterase [1]
  IC50: 12900 nM
Cholinesterase [2]
  IC50: 7410 nM

## C[N+](C)(CC#CCOC1=NOCC1)CCCCCC[N+]1(C)CCC(N2C(=O)c3cccc4cccc(c34)C2=O)CC1 (configuration not stated)
physchem
  logP: 1.54
Acetylcholinesterase [1]
  IC50: 1050 nM
Cholinesterase [2]
  IC50: 851 nM

## C[N+](C)(CC#CCOC1=NOCC1)CCCCCCCCCCNc1c2c(nc3ccccc13)CCCC2
physchem
  logP: 3.28
Acetylcholinesterase [1]
  IC50: 0.155 nM
Homo sapiens
  Selectivity ratio: 8
HepG2
  IC50: 32200 nM
Acetylcholinesterase [3]
  IC50: 1.78 nM
Cholinesterase [2]
  IC50: 1.78 nM
Cholinesterase [4]
  IC50: 1.82 nM

## CC(C)(CN1C(=O)c2cccc3cccc(c23)C1=O)C[N+](C)(C)CCCCCCCC[N+](C)(C)CC#CCOC1=NOCC1
physchem
  logP: 1.61
Acetylcholinesterase [1]
  IC50: 794 nM
Cholinesterase [2]
  IC50: 347 nM

## BrCCCCCCCNc1c2c(nc3ccccc13)CCCC2
Acetylcholinesterase [1]
  IC50: 0.398 nM
Cholinesterase [2]
  IC50: 263 nM

## CC(C)(CN1C(=O)c2cccc3cccc(c23)C1=O)C[N+](C)(C)CCCCCCC[N+](C)(C)CC#CCOC1=NOCC1
physchem
  logP: 1.7
Acetylcholinesterase [1]
  IC50: 912 nM
Cholinesterase [2]
  IC50: 204 nM

## c1ccc2c(NCCCCCCCNc3c4c(nc5ccccc35)CCCC4)c3c(nc2c1)CCCC3
Acetylcholinesterase [1]
  IC50: 0.0331 nM
HepG2
  IC50: < 1380 nM
Cholinesterase [2]
  IC50: 0.724 nM

## C[N+](C)(CC#CCOC1=NOCC1)CCCCCC[N+]1(C)CCC(N2C(=O)c3ccccc3C2=O)CC1 (configuration not stated)
physchem
  logP: 0.84
Acetylcholinesterase [1]
  IC50: 2400 nM
Cholinesterase [2]
  IC50: 10700 nM

## BrCCCCCCCCCCNc1c2c(nc3ccccc13)CCCC2
Acetylcholinesterase [1]
  IC50: 0.562 nM
Cholinesterase [2]
  IC50: 8.71 nM

## C[N+](C)(CC#CCOc1ccon1)CCCC[N+](C)(C)CCCN1C(=O)c2ccccc2C1=O
physchem
  logP: 1.55
[5]
  inhibition: 19.1%
Cholinesterase [2]
  IC50: 85100 nM

## C[N+](C)(CC#CCOc1ccon1)CCCCCC[N+](C)(C)CCCN1C(=O)c2ccccc2C1=O
physchem
  logP: 0.99
[5]
  inhibition: 32.2%
Cholinesterase [2]
  IC50: 38900 nM

## C[N+](C)(CC#CCOC1=NOCC1)CCCCCCC[N+](C)(C)CCCN1C(=O)c2ccccc2C1=O
physchem
  logP: 0.79
Acetylcholinesterase [1]
  IC50: 14800 nM
Cholinesterase [2]
  IC50: 6460 nM
